The results in this text go back to ChEMBL document CHEMBL1201862, “PubChem BioAssay data set” (2004).

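Cells were grown in 96-well plates and exposed to each compound for 48 hours at five concentrations; endpoints were interpolated linearly between bracketing concentrations, or set to the highest concentration if not reached. GI50 is the concentration that inhibits growth by half.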 The source made the active and inactive calls. Cut-off read from the data, not from the text of the source: active = GI50 up to about 1.1 µM and inactive = higher. Residues, ends and D or L forms follow the SMILES beside them. *: point of attachment. Boc = CC(C)(C)OC(=O)*

Some test systems named below: SF-539; HCT-15; OVCAR-4; SF-295; PC-3; HCT-116; T47D; SNB-19; MDA-MB-231; NCI/ADR-RES; KM12; BT-549; ACHN; OVCAR-5; U-251; NCI-H23; UACC-257; SK-OV-3; SW-620; HL-60.
Assay in all cases: NCI tumour cell line growth inhibition, 48 h

In the case of `Nc1nc(N)c(Cn2ccnc2)c(O)n1`, the GI50 with SF-539 was > 100 µM (inactive); in the test on HCT-15, over 100 µM; in the test with OVCAR-4, > 100 µM (inactive); in the test with SF-295 it was > 100 µM (inactive); in the test on PC-3, > 100 µM (inactive); in the test on HCT-116, > 100 µM (inactive). Moreover, the GI50 with T47D, with SNB-19, in the test on MDA-MB-231, in the test on NCI/ADR-RES, in the test on KM12 and in the test on BT-549 was > 100 µM (inactive) in each case. The GI50 in the test with ACHN, in the test on OVCAR-5, in the test on U-251, in the test on NCI-H23, with UACC-257 and in the test with SK-OV-3 was > 100 µM (inactive) in each case.

Regarding `c1ccc(-c2cnc3nc4ccccc4nc3n2)cc1`, the GI50 with SF-539 is 3.25 µM (inactive); in the test with HCT-15, 2.5 µM; in the test on OVCAR-4 it was 1.72 µM (inactive); in the test with SF-295, 6.11 µM (inactive); in the test on HCT-116 it was 2.86 µM (inactive); with T47D, 3.85 µM (inactive). The GI50 in the test on SNB-19 is 13.7 µM (inactive); in the test on SW-620 it was 2.81 µM (inactive); in the test on MDA-MB-231, 2.69 µM (inactive); with NCI/ADR-RES, 3.81 µM (inactive); in the test with KM12 it was 1.22 µM (inactive); in the test on HL-60 it was 1.82 µM (inactive). For the same compound, the GI50 was 3.43 µM (inactive) in the test with BT-549; 1.22 µM (inactive) with ACHN; 13.6 µM (inactive) in the test on OVCAR-5; 4.94 µM (inactive) in the test on U-251; 3.82 µM (inactive) with NCI-H23; 2.25 µM (inactive) in the test with UACC-257. In addition, the GI50 in the test on SK-OV-3 was 2.87 µM (inactive).

As for `CC1(C)C2CCC(N)(C2)C1N` (configuration not stated), the GI50 in the test on HCT-15 is over 100 µM; in the test with OVCAR-4, > 100 µM (inactive); in the test on SF-295, > 100 µM (inactive); with PC-3 it was > 100 µM (inactive); in the test on HCT-116 it was > 100 µM (inactive); with T47D, > 100 µM (inactive). The GI50 in the test with SNB-19 was > 100 µM (inactive); in the test with SW-620 it was > 100 µM (inactive); with NCI/ADR-RES, > 100 µM (inactive); in the test with KM12 it was > 100 µM (inactive); in the test on HL-60 it was 22.3 µM (inactive); in the test with BT-549, > 100 µM (inactive). Further, the GI50 with ACHN, in the test with OVCAR-5, with U-251, with NCI-H23, in the test with UACC-257 and with SK-OV-3 was > 100 µM (inactive) in each case.

For `CNC(=O)OCc1cnc([N+](=O)[O-])n1C`, the GI50 with SF-539 was > 100 µM (inactive); in the test with HCT-15, over 100 µM; in the test with OVCAR-4, > 100 µM (inactive); in the test with SF-295, > 100 µM (inactive); in the test on PC-3 it was > 100 µM (inactive); in the test with HCT-116, > 100 µM (inactive). Further, the GI50 with SW-620, in the test on MDA-MB-231, with NCI/ADR-RES, in the test with KM12, in the test on HL-60 and in the test on BT-549 was > 100 µM (inactive) each time. For the same compound, the GI50 in the test on ACHN, in the test with OVCAR-5, in the test on U-251, in the test on NCI-H23 and in the test on UACC-257 was > 100 µM (inactive) each time.

Take `O=c1cc(NCC2CCCCC2)[nH]c(=O)[nH]1`: the GI50 is > 100 µM (inactive) with SF-539; over 100 µM in the test with HCT-15; > 100 µM (inactive) in the test with OVCAR-4; > 100 µM (inactive) in the test on SF-295; > 100 µM (inactive) in the test on PC-3; > 100 µM (inactive) in the test with HCT-116. For the same compound, the GI50 in the test with SNB-19, in the test on SW-620, in the test on MDA-MB-231, in the test on NCI/ADR-RES, in the test on KM12 and with HL-60 was > 100 µM (inactive) throughout. Moreover, the GI50 in the test with BT-549, in the test on ACHN, in the test with OVCAR-5, in the test with U-251, in the test with NCI-H23 and in the test on UACC-257 was > 100 µM (inactive) in each case.

As to `c1ccc2c(c1)ccc1nc3ccccn3c12`, the GI50 with SF-539 was > 100 µM (inactive); with HCT-15, over 100 µM; in the test with SF-295, > 100 µM (inactive); with PC-3, > 100 µM (inactive); in the test on T47D it was > 100 µM (inactive); in the test with SNB-19 it was > 100 µM (inactive). The GI50 with SW-620, in the test with NCI/ADR-RES, with KM12, in the test with HL-60, in the test with BT-549 and in the test with ACHN was > 100 µM (inactive) in each case. In addition, the GI50 in the test on OVCAR-5 was > 100 µM (inactive); in the test on U-251, > 100 µM (inactive); in the test with NCI-H23 it was > 100 µM (inactive); in the test on UACC-257 it was > 100 µM (inactive); with SK-OV-3, 35.2 µM (inactive).

In the case of `COc1cc2c(cc1NC(=O)c1ccccc1)c1c(n2S(=O)(=O)c2ccccc2)CCN(S(=O)(=O)c2ccccc2)C1`, the GI50 with HCT-15 is over 100 µM; in the test on OVCAR-4, > 100 µM (inactive); with PC-3, > 100 µM (inactive); with HCT-116 it was > 100 µM (inactive); in the test on T47D it was 22.1 µM (inactive); with SNB-19, > 100 µM (inactive). Further, the GI50 with SW-620, in the test on NCI/ADR-RES, in the test with KM12, in the test on HL-60, with BT-549 and with ACHN was > 100 µM (inactive) throughout. The GI50 with OVCAR-5, with U-251, in the test with NCI-H23, with UACC-257 and with SK-OV-3 was > 100 µM (inactive) throughout.

Regarding `CC1(C)N=c2c(ncn2Cc2ccccc2)=C(C(N)=O)N1`, the GI50 was > 100 µM (inactive) in the test on SF-539; over 100 µM in the test on HCT-15; > 100 µM (inactive) with OVCAR-4; > 100 µM (inactive) in the test on SF-295; > 100 µM (inactive) with PC-3; > 100 µM (inactive) in the test with HCT-116. The GI50 with T47D, in the test on SNB-19, with SW-620, in the test with MDA-MB-231, in the test on NCI/ADR-RES and in the test on KM12 was > 100 µM (inactive) in each case. Moreover, the GI50 was > 100 µM (inactive) in the test with HL-60; 94.4 µM (inactive) in the test on ACHN; > 100 µM (inactive) in the test on OVCAR-5; > 100 µM (inactive) in the test on U-251; > 100 µM (inactive) in the test with NCI-H23; > 100 µM (inactive) with UACC-257. For the same compound, the GI50 with SK-OV-3 was > 100 µM (inactive).

For the compound `CCOc1ccc(N/C(=C(/C(Cl)=C(/Cl)N2CCCCC2)[N+](=O)[O-])n2nnc3ccccc32)cc1`, the GI50 in the test on SF-539 is 16.4 µM (inactive); in the test on HCT-15 it was 11.1 µM; in the test on SF-295, 22.4 µM (inactive); in the test on PC-3, 11.6 µM (inactive); in the test on HCT-116, 16.7 µM (inactive); in the test with T47D, 17.3 µM (inactive). For the same compound, the GI50 is 19.9 µM (inactive) in the test with SNB-19; 20.9 µM (inactive) in the test on MDA-MB-231; 19.3 µM (inactive) with NCI/ADR-RES; 14.2 µM (inactive) with KM12; 17.7 µM (inactive) with BT-549; 16.2 µM (inactive) in the test on ACHN. The GI50 in the test with OVCAR-5 was 16.7 µM (inactive); with U-251, 15.6 µM (inactive); with NCI-H23, 15.3 µM (inactive); in the test with UACC-257 it was 16.9 µM (inactive); in the test with SK-OV-3 it was 28.9 µM (inactive).

As to `COc1ccccc1N1C(=O)/C(=C\c2cc(OC)c(OC)c(OC)c2)S(=O)(=O)C1c1ccccc1` (configuration not stated), the GI50 with SF-539 is 25.5 µM (inactive); with HCT-15, 29.5 µM; in the test on OVCAR-4, 39.9 µM (inactive); in the test on SF-295, 23.8 µM (inactive); in the test on HCT-116, 23.8 µM (inactive); in the test with T47D, 29.6 µM (inactive). In addition, the GI50 in the test with SNB-19 was 32.6 µM (inactive); with SW-620, 30 µM (inactive); in the test on MDA-MB-231, 52.6 µM (inactive); in the test with NCI/ADR-RES, 22.2 µM (inactive); in the test on KM12 it was 28.6 µM (inactive); in the test with BT-549, 30.5 µM (inactive). Besides, the GI50 is 41.2 µM (inactive) in the test on ACHN; 18.6 µM (inactive) in the test with U-251; 33.9 µM (inactive) in the test with NCI-H23; 70.1 µM (inactive) in the test on UACC-257; 20.6 µM (inactive) in the test with SK-OV-3.

`COC(=O)C(Cc1c[nH]c2ccccc12)NC(=O)C(Cc1c[nH]c2ccccc12)NC(=O)C(Cc1c[nH]c2ccccc12)NC(=O)C(Cc1c[nH]c2ccccc12)NC(=O)OC(C)(C)C` (configuration not stated) (Boc-WWWW-OMe; configuration not given here): the GI50 with HCT-15 was over 100 µM; with OVCAR-4, 48.5 µM (inactive); in the test with PC-3, 19.5 µM (inactive); in the test on HCT-116, 13.9 µM (inactive); in the test with T47D, 19.7 µM (inactive); with SNB-19, 31.9 µM (inactive). For the same compound, the GI50 in the test on SW-620 was 6.07 µM (inactive); with MDA-MB-231, > 100 µM (inactive); with HL-60, 6.34 µM (inactive); with BT-549 it was 17.9 µM (inactive); in the test with ACHN, 57.5 µM (inactive); in the test with OVCAR-5, > 100 µM (inactive). Also, the results for the GI50 with U-251, with NCI-H23 and in the test with UACC-257 were 14.4 µM (inactive), 25.1 µM (inactive) and 79.4 µM (inactive), respectively.
